Measured values from US8822513B2, “Compounds for treatment of cancer” (GTX, Inc., priority 2010, dated 2014).
Where two headings read alike, the source gives them in different places.

Experiments:
[1] = test system: prostate cancer cell lines (LNCaP, PC-3, DU-145, PPC-1); assay: SRB cytotoxicity, prostate cancer cell lines (panel statements); conditions: Homo sapiens, read-out: IC50 against prostate cancer cells
[2] = test system: tubulin (colchicine, vinblastine, paclitaxel binding sites); assay: MS competitive binding assay
Description: Each reaction was run in triplicate.

[3] = Rotarod test (in vivo neurotoxicity); design: species or system mouse; conditions: ICR mice; 1h 5 or 15 mg/kg, vinblastine 0.5 mg/kg, i.p. daily
Protocol: ICR mice received training three times a day for two days to enable them to stay on the rotating rod for >120 seconds at 12 rpm. Mice were then randomized by the length of time that they could stay on the rotating rod and divided into 7-8 mice per group. […] The rotarod test was performed twice a week. […] The rod speed was increased from […] to 40 rpm over a period of 5 min. Performance was measured as the length of time that a mouse could stay on the rotating rod.

Bovine brain tubulin = assay: In vitro tubulin polymerization assay (bovine brain tubulin); format: biochemical
Protocol: The spectrophotometer was maintained at 37° C. for tubulin polymerization.

[4] = Metabolic stability in human liver microsomes; conditions: for Half life in Human liver microsome: Table 20
[5] = ICR mice, 4 consecutive days i.p.
A375 melanoma xenografts = assay: In vivo efficacy, A375 melanoma xenograft in nude mice (SMART compounds); design: species or system mouse; conditions: 15 mg/kg i.p.
PC-3 cells [6] = assay: Apoptosis detection by ELISA (cytoplasmic DNA-histone complexes), PC-3; format: cell-based, human; conditions: PC-3 and A375 cells, 24 h
Description: The levels of DNA-histone complexes were used to represent cell apoptosis.
Quantification of the enrichment of mono- and oligonucleosomes in the cytoplasm was used to determine the ability of the compounds to induce apoptosis (cell death detection ELISA PLUS, Roche, Germany) following the manufacturer's instructions.

PC-3 xenografts = assay: In vivo efficacy, PC-3 prostate tumor xenograft in nude mice; conditions: 50 mg/kg i.p.
NCI/ADR-RES cells = assay: SRB cytotoxicity assay, NCI/ADR-RES (P-gp over-expressing); format: cell-based; conditions: Homo sapiens
[7] = test system: three melanoma cell lines and four human prostate cancer cell lines; assay: SRB cytotoxicity, melanoma and prostate cancer cell lines (ranges and averages over the panel); format: cell-based; conditions: Homo sapiens; text on Tables 2, 3, 12, 21; read-out: IC50 (range over cell lines)
[8] = Aqueous solubility, Multiscreen Solubility Filter Plate, PBS pH 7.4; format: physicochemical; conditions: HCl salt, vs 1h
[9] = Pharmacokinetic study in Sprague-Dawley rats; conditions: rat
[10] = Metabolic stability in mouse liver microsomes; format: in vitro ADME; conditions: Table 20
[11] = Metabolic stability in monkey liver microsomes; format: in vitro ADME; conditions: Table 20
[12] = Metabolic stability in dog liver microsomes; format: in vitro ADME; conditions: Table 20
[13] = Metabolic stability in rat liver microsomes; format: in vitro ADME; conditions: Table 20
LNCaP cells = assay: SRB cytotoxicity assay, LNCaP; format: cell-based, human; conditions: Table 12; 96 h; read-out: IC50 ± SEM LNCaP
Description: (§1) Cells were stained with SRB solution.

WM-164 melanoma cells = assay: SRB cytotoxicity assay, WM-164; format: cell-based, human; conditions: Table 12; 48 h; read-out: IC50 ± SEM WM164
PC-3 cells [14] = test system: PC-3 cells
Description: as §1
Cells were stained with sulphorhodamine B (SRB) solution.

A375 melanoma cells = assay: SRB cytotoxicity assay, A375; format: cell-based, human; conditions: Table 12; 48 h; read-out: IC50 ± SEM A375
DU 145 cells = assay: SRB cytotoxicity assay, DU 145; format: cell-based, human; conditions: Table 12; 96 h; read-out: IC50 ± SEM Du 145
Description: as §1

B16-F1 melanoma cells = assay: SRB cytotoxicity assay, B16-F1; format: cell-based, mouse
PPC-1 cells = test system: PPC-1 cells
Description: as §1

PC-3/TxR cells [15] = assay: SRB cytotoxicity assay, paclitaxel-resistant PC-3/TxR; conditions: Table 15; data in parentheses; IC50 values in PC-3 and PC-3/TxR compared
PC-3/TxR cells [16] = test system: PC-3/TxR cells
B16-F1 melanoma tumors = assay: In vivo efficacy, B16-F1 melanoma in C57/BL mice; design: species or system mouse; conditions: 60 mg/kg i.p. daily, 14 days
Protocol: Female C57/BL mice, age 4-6 weeks, were purchased from Harlan Laboratories (Harlan Laboratories Inc., Indianapolis, Ind.). The animal housing met the Association for Assessment and Accreditation and Laboratory Animal Care specifications. All of the procedures were conducted in accordance with guidelines of our Institutional Animal Care and Use Committee.
Tumor volume was expressed in cubic millimeters.

[17] = Pharmacokinetic study in ICR mice; conditions: 15 mg/kg i.v.
[18] = Table 12, 48 h, read-out: IC50 ± SEM B16-F1

## COc1cc(C(=O)c2cccc(-c3ccccc3)n2)cc(OC)c1OC [1c, (6-Phenylpyridin-2-yl)(3,4,5-trimethoxyphenyl)methanone]
[1]
  IC50: 12 to 35 nM

## COc1cc(C(=O)c2csc(-c3ccccc3)n2)cc(OC)c1OC [1h, (2-Phenyl-thiazol-4-yl)-(3,4,5-trimethoxy-phenyl)-methanone]
[2]
  competition with colchicine-tubulin binding: specifically competed with colchicine binding to tubulin
[3]
  time on the rotating rod vs vehicle group: no significant difference
Bovine brain tubulin; 10 μM (Example 22)
  inhibition of tubulin polymerization: 90%
Bovine brain tubulin; 10 μM, after 20 min, vs vehicle
  inhibition of tubulin polymerization: 47%
[4]; Table 16B, Phase I + II (UDP-glucuronic acid present)
  Half-life in HLM (Phase I + II): 17 min
[4]
  Half life in Human liver microsome: 17 min

## COc1cc(C(=O)c2csc(-c3ccc(F)cc3)n2)cc(OC)c1OC [2k]
[5]
  dose not causing greater than 10% loss of body weight: ≤ 15 mg/kg
A375 melanoma xenografts
  % T/C: 29%
Bovine brain tubulin; 10 μM (Example 22)
  inhibition of tubulin polymerization: 90%

## COc1cc(C(=O)c2csc(-c3ccc(O)cc3)n2)cc(OC)c1OC [2l, (2-(4-Hydroxyphenyl)thiazol-4-yl)(3,4,5-trimethoxyphenyl)methanone]
Bovine brain tubulin; 10 μM (Example 22)
  inhibition of tubulin polymerization: 55%
PC-3 cells [6]
  concentration inducing apoptosis: greater than or equal to 200 nM
PC-3 xenografts
  % T/C: 34%

## COc1cc(C(=O)c2csc(-c3ccc(CN)cc3)n2)cc(OC)c1OC.Cl [2r, (2-(4-(Aminomethyl)phenyl)thiazol-4-yl)(3,4,5-trimethoxyphenyl)methanone hydrochloride]
NCI/ADR-RES cells; Table 5A, P-gp over-expressed, read-out: IC50 NCI/ADR-RES
  IC50: 11 ± 2 nM
[7]
  IC50: 13 to 80 nM
[8]
  increase of solubility: over 35 fold

## COc1cc(C(=O)c2csc(Nc3ccc(F)cc3)n2)cc(OC)c1OC.Cl [5Hc, (2-(p-Fluorophenylamino)thiazol-4-yl)(3,4,5-trimethoxyphenyl)methanone hydrochloride salt]
[9]
  increased exposure (AUC) by the oral route compared to 1h: more than 4.3 fold

## c1cc2ccc(-c3ccc4[nH]ccc4c3)cc2c(-c2ccc3[nH]ccc3c2)n1 [6b, 1,7-Bis-(1H-indol-5-yl)-isoquinoline]
[10]
  Half life in Mouse liver microsome: 10 min
[11]
  Half life in Monkey liver microsome: 13 min
[12]
  Half life in Dog liver microsome: 30 min
[13]
  Half life in Rat liver microsome: 9 min
[4]
  Half life in Human liver microsome: 40 min

## Fc1ccc(-c2nccc3ccc(-c4ccc5[nH]ccc5c4)cc23)cc1 [6c, 1-(4-Fluoro-phenyl)-7-(1H-indol-5-yl)-isoquinoline]
[10]
  Half life in Mouse liver microsome: 13 min
[11]
  Half life in Monkey liver microsome: 9 min
[12]
  Half life in Dog liver microsome: 29 min
[13]
  Half life in Rat liver microsome: 14 min
[4]
  Half life in Human liver microsome: 47 min

## COc1cc(C(=O)c2c[nH]c(-c3ccc(Cl)cc3)n2)cc(OC)c1OC [12fa, (2-(4-chlorophenyl)-1H-imidazol-4-yl)(3,4,5-trimethoxyphenyl)methanone]
NCI/ADR-RES cells; Table 12, read-out: IC50 ± SEM NCl/ADR-RES
  IC50: 19 nM
[4]; Table 16B, Phase I
  Half-life in HLM (Phase I): 44 min

## O=C(c1ccc(F)cc1)c1c[nH]c(-c2ccc(O)cc2)n1 [12kb]
LNCaP cells
  IC50: > 10000 nM
WM-164 melanoma cells
  IC50: > 10000 nM
PC-3 cells [14]; read-out: IC50 ± SEM PC-3, Table 12, 96 h
  IC50: > 10000 nM
A375 melanoma cells
  IC50: 10000 nM
DU 145 cells
  IC50: > 10000 nM
B16-F1 melanoma cells; [18]
  IC50: > 10000 nM
PPC-1 cells; read-out: IC50 ± SEM PPC-1, Table 12, 96 h
  IC50: > 10000 nM

## O=C(c1cc(O)c(O)c(O)c1)c1c[nH]c(-c2ccc(O)c(O)c2)n1 [13ha]
WM-164 melanoma cells
  IC50: > 10000 nM
A375 melanoma cells
  IC50: > 10000 nM
B16-F1 melanoma cells; [18]
  IC50: > 10000 nM

## COc1cc(C(=O)c2cn(S(=O)(=O)c3ccccc3)c(-c3cn(S(=O)(=O)c4ccccc4)c4ccccc34)n2)cc(OC)c1OC [17yaa, (1-(phenylsulfonyl)-2-(1-(phenylsulfonyl)-1H-indol-3-yl)-1H-imidazol-4-yl)(3,4,5-trimethoxyphenyl)methanone]
PC-3 cells [14]
  IC50: 5.2 ± 0.2 nM
PC-3/TxR cells [15]
  Resistance factor PC-3/TxR vs PC-3: 0.4
B16-F1 melanoma cells; Table 6A, read-out: IC50 B16-F1
  IC50: 538 nM
PC-3/TxR cells [16]
  IC50: 2.1 ± 0.1 nM
PPC-1 cells
  IC50: 21 ± 0.1 nM

## CN(C)/N=N/c1[nH]cnc1C(N)=O [DTIC]
B16-F1 melanoma tumors
  tumor volume reduction: 51%

## COc1cc(C(=O)c2csc(-c3ccc(F)cc3)n2)cc(OC)c1OC [SMART-F]
[17]; mice
  AUC: 2100 ng·h/mL
A375 melanoma xenografts; Melanoma (A375) xenograft
  T-C: 11 days

## CC[C@]1(O)C[C@@H]2CN(CCc3c([nH]c4ccccc34)[C@@](C(=O)OC)(c3cc4c(cc3OC)N(C)[C@H]3[C@@](O)(C(=O)OC)[C@H](OC(C)=O)[C@]5(CC)C=CCN6CC[C@]43[C@@H]65)C2)C1 [Vinblastine, vinblastine, reference compound]
[2]
  competition with colchicine-tubulin binding: did not inhibit the colchicine-tubulin binding
[3]
  time on the rotating rod vs vehicle group: gradually reduced the time

## O=C(c1ccc2[nH]ccc2c1)c1csc(-c2cc3ccccc3[nH]2)n1 [compound 21, (2-(1H-indol-2-yl)thiazol-4-yl)(1H-indol-5-yl)methanone]
[7]
  IC50: 76 to 116 nM
[17]; ICR mice
  times higher Vss than 1h and 2k: 2-3 times
